Assay results reported in US8957083B2, “Spiro-amino-imidazolone and spiro-amino-dihydro-pyrimidinone compounds as beta-secretase modulators and methods of use” (Amgen Inc., priority 2010, dated 2015).
pIC50: −log10 of the molar value. Like-named read-outs stand apart in the source and are kept apart here.

Assays:
[1] = biological target: BACE 1 (Beta Secretase enzyme) (Homo sapiens (Human), UniProt P56817); experiment: In vitro enzymatic BACE FRET assay; assay type: biochemical; details: enzyme 0.2 nM, FRET substrate 50 nM, pH 4.2
Experimental: In Vitro Enzymatic BACE FRET (Fluorescence Resonance Energy Transfer) Assay (Enzyme Assay Data in the Example Table I)
The assay buffer used in this screen is 0.05 M acetate, pH 4.2, 10% DMSO final, 100 uM genapol (which is a nonionic detergent, below its Critical Micelle Concentration). […] This assay is effectively started by the addition of FRET substrate (50 nM) and the combination is incubated for one hour. The FRET assay is terminated with by addition of Tris buffer, which raises the pH to neutrality, and the fluorescence is determined. The FRET substrate is a peptide with commercially available fluorophore and quencher, on opposite sides of the BACE cleavage site. Proteolytic cleavage of the FRET substrate releases quenching of fluorescence (excitation […] and […]).

[2] = system: Aβ40 in conditioned medium of cells expressing amyloid precursor protein; experiment: In vitro BACE cell-based assay (HEK cell assay), Aβ40 sandwich ELISA; details: Aβ40 in supernatant after 24 h incubation
Experimental: In Vitro BACE Cell-Based Assay
The cell-based assay measures inhibition or reduction of Aβ40 in conditioned medium of test compound treated cells expressing amyloid precursor protein.
Cells stably expressing Amyloid Precursor Protein (APP) were plated at a density of 40K cells/well in 96 well plates (Costar). The cells were cultivated for 24 hours at 37° C. and 5% CO2 in DMEM supplemented with 10% FBS. The test compounds were then added to cells in 10-point dose response concentrations with the starting concentration being either 100 μM or 10 μM. The compounds were diluted from stock solutions in DMSO and the final DMSO concentration of the test compounds on cells was 0.1%. After 24 h of incubation with the test compounds the supernatant conditioned media was collected and the Aβ 40 levels were determined using a sandwich ELISA. The IC50 of the compound was calculated from the percent of control or percent inhibition of Aβ 40 as a function of the concentration of the test compound.
The sandwich ELISA to detect Aβ 40 was performed in 96 well microtiter plates, which were pre-treated with goat anti-rabbit IgG (Pierce). The capture and detecting antibody pair that were used to detect Aβ 40 from cell supernatants were affinity purified pAb40 (Biosource) and biotinylated 6E10 (Signet Labs Inc.), respectively. The optimal concentration for the pAb40 antibody was 3 μg/ml in Superblock/TBS (Pierce) that was supplemented with 0.05% Tween 20 (Sigma).
Cellular supernatants were incubated with the capture antibody for 3 h at 4° C., followed by 3 wash steps in TBS-tween (0.05%). The detecting antibody incubation was for 2 h at 4° C., again followed by the wash steps as described previously. The final readout of the ELISA is Time-Resolved Fluorescence (counts per minute) using Delfia reagents Streptavidin-Europium and Enhancement solutions (Perkin Elmer) and the Victor 2 multilabel counter (Perkin Elmer).

[3] = average IC50, read-out: BACE 1 FRET assay
[4] = Homo sapiens, HEK293, 24 h, average IC50, read-out: HEK cell assay
[5] = class symbols, read-out: BACE 1 FRET assay (IC50 class)
[6] = Homo sapiens, HEK293, 24 h, class symbols, read-out: HEK cell assay (IC50 class)

BACE 1 (Beta Secretase enzyme), sequence (P56817 46-501): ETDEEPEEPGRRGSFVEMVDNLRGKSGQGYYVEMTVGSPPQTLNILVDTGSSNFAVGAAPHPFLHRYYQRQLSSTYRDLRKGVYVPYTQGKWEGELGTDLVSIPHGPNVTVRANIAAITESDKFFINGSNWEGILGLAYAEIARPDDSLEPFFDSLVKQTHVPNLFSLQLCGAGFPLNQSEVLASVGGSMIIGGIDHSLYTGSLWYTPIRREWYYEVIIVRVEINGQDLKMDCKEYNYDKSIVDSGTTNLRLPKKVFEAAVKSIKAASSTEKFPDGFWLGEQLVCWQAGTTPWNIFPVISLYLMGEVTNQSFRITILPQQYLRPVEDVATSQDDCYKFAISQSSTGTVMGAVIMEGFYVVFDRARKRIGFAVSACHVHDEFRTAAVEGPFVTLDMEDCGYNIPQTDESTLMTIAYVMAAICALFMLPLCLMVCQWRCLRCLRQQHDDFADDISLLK

| SMILES | pIC50 [1, 3] | pIC50 [2, 4] | pIC50 ([2]; average IC50, read-out: HEK cell assay) | pIC50 [1, 5] | pIC50 [2, 6] |
| --- | --- | --- | --- | --- | --- |
| COc1ccc2c(c1)[C@]1(N=C(N)N(C)C1=O)c1cc(-c3ccc(C)cc3)cc(F)c1O2 (mixture of isomers) [Example 29, (4R)-2-amino-4′-fluoro-7′-methoxy-1-methyl-2′-(4-methylphenyl)spiro[imidazole-4,9′-xanthen]-5(1H)-one and (4S)-2-amino-4′-fluoro-7′-methoxy-1-methyl-2′-(4-methylphenyl)spiro[imidazole-4,9′-xanthen]-5(1H)-one] | 7.87 | 5.71 |  |  |  |
| CN1C(=O)[C@]2(N=C1N)c1cc(C3=CCOCC3)ccc1Oc1ccc(-c3cccnc3F)cc12 (stereo in doubt) [Example 9, 2-amino-2′-(3,6-dihydro-2H-pyran-4-yl)-7′-(2-fluoropyridin-3-yl)-1-methylspiro[imidazole-4,9′-xanthen]-5(1H)-one] | 9.05 | 8.44 |  |  |  |
| Cc1ccc(-c2cc(F)c3c(c2)[C@]2(N=C(N)N(C)C2=O)c2cc(-c4cccc(Cl)c4)ccc2O3)cc1 (stereo in doubt) [Example 33, (4R)-2-amino-7′-(3-chlorophenyl)-4′-fluoro-1-methyl-2′-(4-methylphenyl)spiro[imidazole-4,9′-xanthen]-5(1H)-one, (4S)-2-amino-7′-(3-chlorophenyl)-4′-fluoro-1-methyl-2′-(4-methylphenyl)spiro[imidazole-4,9′-xanthen]-5(1H)-one] | 8.39 |  | 6.63 |  |  |
| CN1C(=O)CC2(N=C1N)c1cc(Br)ccc1Oc1c2cc(Cl)nc1F (centres unmarked) [Example 11, 2′-amino-7-bromo-3-chloro-1-fluoro-1′-methyl-1′H-spiro[chromeno[2,3-c]pyridine-5,4′-pyrimidin]-6′(5′H)-one] |  |  |  | < 6.00 | < 6.00 |
| CN1C(=O)CC2(N=C1N)c1cc(-c3cccnc3F)ccc1Oc1c2cc(Cl)nc1F (centres unmarked) [Example 12, 2′-amino-3-chloro-1-fluoro-7-(2-fluoropyridin-3-yl)-1′-methyl-1′H-spiro[chromeno[2,3-c]pyridine-5,4′-pyrimidin]-6′(5′H)-one] |  |  |  | 6.00 to 7.00 | < 6.00 |
| CN1C(=O)CC2(N=C1N)c1cc(-c3cccnc3F)ccc1Oc1c2cc(-c2cccnc2F)nc1F (centres unmarked) [Example 13, 2′-amino-1-fluoro-3,7-bis(2-fluoropyridin-3-yl)-1′-methyl-1′H-spiro[chromeno[2,3-c]pyridine-5,4′-pyrimidin]-6′(5′H)-one] | 7.64 | 6.81 |  |  |  |
| CN1C(=O)C[C@]2(N=C1N)c1cc(-c3cccnc3F)ccc1Oc1c2cc(Cl)nc1F [Example 15, (S)-2′-amino-3-chloro-1-fluoro-7-(2-fluoropyridin-3-yl)-1′-methyl-1′H-spiro[chromeno[2,3-c]pyridine-5,4′-pyrimidin]-6′(5′H)-one] | 7.48 | 6.19 |  |  |  |
| CN1C(=O)C[C@]2(N=C1N)c1cc(-c3cccnc3F)ccc1Oc1c2cc(-c2ccnc(F)c2)nc1F [Example 19, (S)-2′-amino-1-fluoro-7-(2-fluoropyridin-3-yl)-3-(2-fluoropyridin-4-yl)-1′-methyl-1′H-spiro[chromeno[2,3-c]pyridine-5,4′-pyrimidin]-6′(5′H)-one] | 8.85 | 7.09 |  |  |  |
| CN1C(=N)N[C@@]2(CC1=O)c1cc(Br)ccc1Oc1cnc(Cl)cc12 [Example 20-A, (S)-7-bromo-3-chloro-2′-imino-1′-methyl-2′,3′-dihydro-1′H-spiro[chromeno[2,3-c]pyridine-5,4′-pyrimidin]-6′(5′H)-one] |  |  |  | < 6.00 | < 6.00 |
| CN1C(=N)N[C@]2(CC1=O)c1cc(Br)ccc1Oc1cnc(Cl)cc12 [Example 20-B, (R)-7-bromo-3-chloro-2′-imino-1′-methyl-2′,3′-dihydro-1′H-spiro[chromeno[2,3-c]pyridine-5,4′-pyrimidin]-6′(5′H)-one] |  |  |  | < 6.00 | < 6.00 |
| CN1C(=O)C[C@@]2(N=C1N)c1cc(-c3cccnc3F)ccc1Oc1cnc(-c3ccnc(F)c3)cc12 [Example 21-A, (R)-7-(2-Fluoropyridin-3-yl)-3-(2-fluoropyridin-4-yl)-2′-imino-1′-methyl-2′,3′-dihydro-1′H-spiro[chromeno[2,3-c]pyridine-5,4′-pyrimidin]-6′(5′H)-one] |  | 5.62 |  |  |  |
| CN1C(=O)[C@@]2(N=C1N)c1cc(-c3cccnc3F)ccc1Oc1c(F)cc(-c3ccnc(F)c3)cc12 [Example 38, (4R)-2-amino-4′-fluoro-7′-(2-fluoro-3-pyridinyl)-2′-(2-fluoro-4-pyridinyl)-1-methylspiro[imidazole-4,9′-xanthen]-5(1H)-one] |  | 6.54 |  |  |  |
| CN1C(=O)[C@]2(N=C1N)c1cc(-c3cccnc3F)ccc1Oc1c(F)cc(-c3ccnc(F)c3)cc12 [Example 39, (4S)-2-amino-4′-fluoro-7′-(2-fluoro-3-pyridinyl)-2′-(2-fluoro-4-pyridinyl)-1-methylspiro[imidazole-4,9′-xanthen]-5(1H)-one] |  | 8.51 |  |  |  |

Results, then the compound that gave them:

| pIC50 [1, 3] | pIC50 [2, 4] | pIC50 ([2]; average IC50, read-out: HEK cell assay) | pIC50 [1, 5] | pIC50 [2, 6] | SMILES |
| --- | --- | --- | --- | --- | --- |
| 7.87 | 6.97 |  |  |  | COc1ccc2c(c1)[C@]1(N=C(N)N(C)C1=O)c1cc(-c3cncnc3)ccc1O2 (stereo in doubt) [Example 8, 2-amino-2′-methoxy-1-methyl-7′-(pyrimidin-5-yl)spiro[imidazole-4,9′-xanthen]-5(1H)-one] |
| 9.05 | 7.86 |  |  |  | CC#Cc1cncc(-c2ccc3c(c2)[C@]2(N=C(N)N(C)C2=O)c2cc(C4=CCOCC4)cc(F)c2O3)c1 (stereo in doubt) [Example 30, (4R)-2-amino-2′-(3,6-dihydro-2H-pyran-4-yl)-4′-fluoro-1-methyl-7′-(5-(1-propyn-1-yl)-3-pyridinyl)spiro[imidazole-4,9′-xanthen]-5(1H)-one, (4S)-2-amino-2′-(3,6-dihydro-2H-pyran-4-yl)-4′-fluoro-1-methyl-7′-(5-(1-propyn-1-yl)-3-pyridinyl)spiro[imidazole-4,9′-xanthen]-5(1H)-one] |
| 5.09 | 6.44 |  |  |  | CN1C(=O)C[C@@]2(N=C1N)c1cc(-c3cccnc3F)ccc1Oc1c2cc(Cl)nc1F [Example 14, (R)-2′-amino-3-chloro-1-fluoro-7-(2-fluoropyridin-3-yl)-1′-methyl-1′H-spiro[chromeno[2,3-c]pyridine-5,4′-pyrimidin]-6′(5′H)-one] |
| 8.85 | 8.20 |  |  |  | CN1C(=O)CC2(N=C1N)c1cc(-c3cccnc3F)ccc1Oc1c2cc(C2=CCCOC2)nc1F (centres unmarked) [Example 16, 2′-amino-3-(5,6-dihydro-2H-pyran-3-yl)-1-fluoro-7-(2-fluoropyridin-3-yl)-1′-methyl-1′H-spiro[chromeno[2,3-c]pyridine-5,4′-pyrimidin]-6′(5′H)-one] |
| 8.55 | 6.65 |  |  |  | CN1C(=O)C[C@]2(N=C1N)c1cc(-c3cccnc3F)ccc1Oc1c2cc(C2=CCCOC2)nc1F [Example 17, (S)-2′-amino-3-(5,6-dihydro-2H-pyran-3-yl)-1-fluoro-7-(2-fluoropyridin-3-yl)-1′-methyl-1′H-spiro[chromeno[2,3-c]pyridine-5,4′-pyrimidin]-6′(5′H)-one] |
| 8.62 | 7.15 |  |  |  | CN1C(=O)CC2(N=C1N)c1cc(-c3cccnc3F)ccc1Oc1c2cc(-c2ccnc(F)c2)nc1F (centres unmarked) [Example 18, 2′-amino-1-fluoro-7-(2-fluoropyridin-3-yl)-3-(2-fluoropyridin-4-yl)-1′-methyl-1′H-spiro[chromeno[2,3-c]pyridine-5,4′-pyrimidin]-6′(5′H)-one] |
| 7.32 | 6.37 |  |  |  | CN1C(=N)NC2(CC1=O)c1cc(-c3cccnc3F)ccc1Oc1cnc(-c3cccnc3F)cc12 (centres unmarked) [Example 21, 3,7-bis(2-fluoropyridin-3-yl)-2′-imino-1′-methyl-2′,3′-dihydro-1′H-spiro[chromeno[2,3-c]pyridine-5,4′-pyrimidin]-6′(5′H)-one] |
|  | 7.00 |  |  |  | CN1C(=O)C[C@]2(N=C1N)c1cc(-c3cccnc3F)ccc1Oc1cnc(-c3ccnc(F)c3)cc12 [Example 21-B, (S)-7-(2-Fluoropyridin-3-yl)-3-(2-fluoropyridin-4-yl)-2′-imino-1′-methyl-2′,3′-dihydro-1′H-spiro[chromeno[2,3-c]pyridine-5,4′-pyrimidin]-6′(5′H)-one] |
